Source: patent US20230265151A1, “GIP/GLP1 CO-AGONIST COMPOUNDS” (priority 2020, published 2023)
Like-named read-outs stand apart in the source and are kept apart here.

Columns and labels:
Type in all cases: cell-based
hGLP-1R = hGLP-1R (Homo sapiens, UniProt P43220); test: Functional cAMP formation (HTRF) in HEK-293 clonal cells expressing hGLP-1R, 0.1% bovine casein, without or with 1.0% human serum albumin; design: expressed in transfected cells; conditions: 37° C.; for EC50: cAMP, read-out: hGLP-1R EC50, nM (SEM, n); for Emax: HEK293, cAMP, percent of maximal response to GLP-1(7-36)NH2, read-out: hGLP-1R Emax, % ± SEM
Chain of hGLP-1R (P43220 24-463): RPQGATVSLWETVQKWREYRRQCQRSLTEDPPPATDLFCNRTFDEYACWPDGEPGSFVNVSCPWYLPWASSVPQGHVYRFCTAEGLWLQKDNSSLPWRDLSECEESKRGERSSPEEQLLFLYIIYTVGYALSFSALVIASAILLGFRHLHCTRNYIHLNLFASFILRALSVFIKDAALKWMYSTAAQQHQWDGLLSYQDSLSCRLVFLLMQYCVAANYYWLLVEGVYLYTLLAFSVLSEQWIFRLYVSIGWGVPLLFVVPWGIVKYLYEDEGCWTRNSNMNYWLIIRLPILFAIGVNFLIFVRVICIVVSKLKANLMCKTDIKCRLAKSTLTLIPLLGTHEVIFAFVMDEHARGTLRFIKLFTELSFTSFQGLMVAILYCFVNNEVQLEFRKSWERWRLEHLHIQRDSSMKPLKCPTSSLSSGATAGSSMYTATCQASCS
How it was run: (§1)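 Readings of the HTRF 665/620 nm ratio, which falls as cAMP rises, were converted to nM cAMP using a standard curve after 30 min peptide exposure at 37° C.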

hGIPR = target: T1, hGIPR (Homo sapiens, UniProt P48546); test: Functional cAMP formation (HTRF) in HEK-293 clonal cells expressing hGIPR, 0.1% bovine casein, without or with 1.0% human serum albumin; conditions: 37° C.; for Emax: HEK293, cAMP, percent of maximal response to GIP(1-42)NH2, read-out: hGIPR Emax, % ± SEM; for EC50: cAMP, 0.1% bovine casein (no human serum albumin), geometric mean, read-out: hGIPR EC50, nM (SEM, n)
T1 construct: expressed in transfected cells
T1 sequence (P48546 22-466): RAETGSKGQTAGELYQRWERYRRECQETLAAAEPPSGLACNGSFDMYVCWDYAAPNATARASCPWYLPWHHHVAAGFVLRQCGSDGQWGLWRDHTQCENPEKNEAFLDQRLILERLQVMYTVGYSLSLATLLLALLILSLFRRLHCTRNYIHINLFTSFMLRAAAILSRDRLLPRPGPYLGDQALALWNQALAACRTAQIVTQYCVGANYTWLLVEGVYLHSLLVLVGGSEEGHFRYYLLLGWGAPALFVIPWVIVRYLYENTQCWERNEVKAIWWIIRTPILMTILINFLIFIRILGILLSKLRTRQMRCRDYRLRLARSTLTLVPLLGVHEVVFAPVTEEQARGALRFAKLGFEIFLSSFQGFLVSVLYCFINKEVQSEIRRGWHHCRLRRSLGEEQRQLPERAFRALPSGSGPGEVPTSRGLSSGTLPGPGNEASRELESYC
How it was run: as §1

hGCGR = target: T2, hGCGR (Homo sapiens, UniProt P47871); test: Functional cAMP formation (HTRF) in HEK-293 clonal cells expressing hGCGR, 0.1% bovine casein, without or with 1.0% human serum albumin; conditions: cAMP, 37° C., read-out: hGCGR EC50, nM (SEM, n)
T2 construct: expressed in transfected cells
T2 sequence (P47871 26-477): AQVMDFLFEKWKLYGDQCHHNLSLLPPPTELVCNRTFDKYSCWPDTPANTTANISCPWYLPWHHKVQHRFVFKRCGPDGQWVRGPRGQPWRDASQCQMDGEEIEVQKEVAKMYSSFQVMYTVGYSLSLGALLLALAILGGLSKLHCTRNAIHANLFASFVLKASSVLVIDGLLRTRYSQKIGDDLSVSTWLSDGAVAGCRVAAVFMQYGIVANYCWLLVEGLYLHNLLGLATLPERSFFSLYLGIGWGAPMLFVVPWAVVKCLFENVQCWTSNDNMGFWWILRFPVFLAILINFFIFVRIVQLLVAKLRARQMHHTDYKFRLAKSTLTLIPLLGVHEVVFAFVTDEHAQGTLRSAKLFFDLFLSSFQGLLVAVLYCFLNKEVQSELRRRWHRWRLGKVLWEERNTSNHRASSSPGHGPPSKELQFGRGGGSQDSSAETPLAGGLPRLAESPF
How it was run: as §1

[1] = 0.1% bovine casein (no human serum albumin), geometric mean
[2] = 0.1% bovine casein and 1.0% human serum albumin, geometric mean (SEM, n)
[3] = 0.1% bovine casein and 1.0% human serum albumin
[4] = 0.1% bovine casein, arithmetic mean

| SMILES | EC50 (hGLP-1R; [1]) | EC50 (hGLP-1R; [2]) | Emax (hGIPR; [3]) | Emax (hGIPR; [4]) | EC50 (hGIPR) | EC50 (hGCGR; [1]) | EC50 (hGCGR; [2]) | Emax (hGLP-1R; [4]) | Emax (hGLP-1R; [3]) |
| --- | --- | --- | --- | --- | --- | --- | --- | --- | --- |
| CC[C@H](C)[C@H](NC(=O)[C@H](CC(C)C)NC(=O)[C@](C)(Cc1ccc(O)cc1)NC(=O)[C@H](CCCCNC(=O)COCCOCCNC(=O)COCCOCCNC(=O)CC[C@H](NC(=O)CCCCCCCCCCCCC(=O)O)C(=O)O)NC(=O)[C@@H](NC(=O)[C@H](Cc1ccccc1)NC(=O)[C@H](CCC(=O)O)NC(=O)C(C)(C)NC(=O)[C@H](CCC(N)=O)NC(=O)[C@H](C)NC(=O)[C@H](CCC(N)=O)NC(=O)[C@H](CCCN)NC(=O)[C@H](CC(=O)O)NC(=O)[C@H](CC(C)C)NC(=O)[C@](C)(CC(C)C)NC(=O)[C@@H](NC(=O)C(C)(C)NC(=O)[C@H](Cc1ccc(O)cc1)NC(=O)[C@H](CC(=O)O)NC(=O)[C@H](CO)NC(=O)[C@@H](NC(=O)[C@](C)(Cc1ccccc1F)NC(=O)[C@@H](NC(=O)CNC(=O)[C@H](CCC(=O)O)NC(=O)C(C)(C)NC(=O)[C@@H](N)Cc1ccc(O)cc1)[C@@H](C)O)[C@@H](C)O)[C@@H](C)CC)[C@@H](C)CC)C(=O)N[C@@H](CCCCNC(=O)COCCOCCNC(=O)COCCOCCNC(=O)CC[C@H](NC(=O)CCCCCCCCCCCCC(=O)O)C(=O)O)C(=O)NCC(=O)NCC(=O)N1CCC[C@H]1C(=O)N[C@@H](CO)C(=O)N[C@@H](CO)C(=O)NCC(=O)N[C@@H](C)C(=O)N1CCC[C@H]1C(=O)N1CCC[C@H]1C(=O)N1CCC[C@H]1C(=O)N[C@@H](CO)C(N)=O [Example 412] | 0.16 nM | 18.3 nM | 87.5% | 95.4% | 0.0108 nM | > 9950 nM | > 9950 nM |  |  |
| CCCCCCCCCCCC(=O)N[C@@H](CCC(=O)NCCOCCOCC(=O)NCCOCCOCC(=O)NCCCC[C@H](NC(=O)[C@H](CCCN)NC(=O)[C@H](CC(=O)O)NC(=O)[C@H](CC(C)C)NC(=O)[C@](C)(CC(C)C)NC(=O)[C@@H](NC(=O)C(C)(C)NC(=O)[C@H](Cc1ccncc1)NC(=O)[C@H](CC(=O)O)NC(=O)[C@H](CO)NC(=O)[C@@H](NC(=O)[C@](C)(Cc1ccccc1F)NC(=O)[C@@H](NC(=O)CNC(=O)[C@H](CCC(=O)O)NC(=O)C(C)(C)NC(=O)[C@@H](N)Cc1ccc(O)cc1)[C@@H](C)O)[C@@H](C)O)[C@@H](C)CC)C(=O)N[C@@H](C)C(=O)N[C@@H](CCC(N)=O)C(=O)NC(C)(C)C(=O)N[C@@H](CCCCNC(=O)COCCOCCNC(=O)COCCOCCNC(=O)CC[C@H](NC(=O)CCCCCCCCCCC)C(=O)O)C(=O)N[C@@H](Cc1ccccc1)C(=O)N[C@H](C(=O)N[C@H](CCC(=O)O)C(=O)N[C@@](C)(Cc1ccc(O)cc1)C(=O)N[C@@H](CC(C)C)C(=O)N[C@H](C(=O)N[C@@H](CCCN)C(=O)NCC(=O)NCC(=O)N1CCC[C@H]1C(=O)N[C@@H](CO)C(=O)N[C@@H](CO)C(=O)NCC(=O)N[C@@H](C)C(=O)N1CCC[C@H]1C(=O)N1CCC[C@H]1C(=O)N1CCC[C@H]1C(=O)N[C@@H](CO)C(N)=O)[C@@H](C)CC)[C@@H](C)CC)C(=O)O [Example 413] | 0.234 nM | 5.47 nM | 91.8% |  | 0.0146 nM | > 9950 nM | > 9950 nM | 96.9% |  |
| CCCCCCCCCCCC(=O)N[C@@H](CCC(=O)NCCOCCOCC(=O)NCCOCCOCC(=O)NCCCC[C@H](NC(=O)[C@H](CCCN)NC(=O)[C@H](CC(=O)O)NC(=O)[C@H](CC(C)C)NC(=O)[C@](C)(CC(C)C)NC(=O)[C@@H](NC(=O)C(C)(C)NC(=O)[C@H](Cc1ccncc1)NC(=O)[C@H](CC(=O)O)NC(=O)[C@H](CO)NC(=O)[C@@H](NC(=O)[C@](C)(Cc1ccccc1F)NC(=O)[C@@H](NC(=O)CNC(=O)[C@H](CCC(=O)O)NC(=O)C(C)(C)NC(=O)[C@@H](N)Cc1ccc(O)cc1)[C@@H](C)O)[C@@H](C)O)[C@@H](C)CC)C(=O)N[C@@H](C)C(=O)N[C@@H](CCC(N)=O)C(=O)NC(C)(C)C(=O)N[C@@H](Cc1ccncc1)C(=O)N[C@@H](Cc1ccccc1)C(=O)N[C@H](C(=O)N[C@H](CCC(=O)O)C(=O)N[C@@](C)(Cc1ccc(O)cc1)C(=O)N[C@@H](CC(C)C)C(=O)N[C@H](C(=O)N[C@@H](CCCCNC(=O)COCCOCCNC(=O)COCCOCCNC(=O)CC[C@H](NC(=O)CCCCCCCCCCC)C(=O)O)C(=O)NCC(=O)NCC(=O)N1CCC[C@H]1C(=O)N[C@@H](CO)C(=O)N[C@@H](CO)C(=O)NCC(=O)N[C@@H](C)C(=O)N1CCC[C@H]1C(=O)N1CCC[C@H]1C(=O)N1CCC[C@H]1C(=O)N[C@@H](CO)C(N)=O)[C@@H](C)CC)[C@@H](C)CC)C(=O)O [Example 416] | 0.332 nM |  | 83% | 99% | 0.0214 nM | > 9950 nM | > 9950 nM |  | 109% |
| CCCCCCCCCCCC(=O)N[C@@H](CCC(=O)NCCOCCOCC(=O)NCCOCCOCC(=O)NCCCC[C@H](NC(=O)[C@H](CO)NC(=O)[C@@H]1CCCN1C(=O)[C@@H]1CCCN1C(=O)[C@@H]1CCCN1C(=O)[C@H](C)NC(=O)CNC(=O)[C@H](CO)NC(=O)[C@H](CO)NC(=O)[C@@H]1CCCN1C(=O)CNC(=O)CNC(=O)[C@H](CCC(=O)O)NC(=O)[C@@H](NC(=O)[C@H](CC(C)C)NC(=O)[C@](C)(Cc1ccc(O)cc1)NC(=O)[C@@H](CCC(=O)O)NC(=O)[C@@H](NC(=O)[C@H](Cc1ccccc1)NC(=O)[C@H](Cc1ccncc1)NC(=O)C(C)(C)NC(=O)[C@H](CCC(N)=O)NC(=O)[C@H](C)NC(=O)[C@H](CCCCNC(=O)COCCOCCNC(=O)COCCOCCNC(=O)CC[C@H](NC(=O)CCCCCCCCCCC)C(=O)O)NC(=O)[C@H](CCCN)NC(=O)[C@H](CC(=O)O)NC(=O)[C@H](CC(C)C)NC(=O)[C@](C)(CC(C)C)NC(=O)[C@@H](NC(=O)C(C)(C)NC(=O)[C@H](Cc1ccncc1)NC(=O)[C@H](CC(=O)O)NC(=O)[C@H](CO)NC(=O)[C@@H](NC(=O)[C@](C)(Cc1ccccc1F)NC(=O)[C@@H](NC(=O)CNC(=O)[C@H](CCC(=O)O)NC(=O)C(C)(C)NC(=O)[C@@H](N)Cc1ccc(O)cc1)[C@@H](C)O)[C@@H](C)O)[C@@H](C)CC)[C@@H](C)CC)[C@@H](C)CC)C(N)=O)C(=O)O [Example 420] | 0.123 nM |  | 89.7% |  | 0.00964 nM | > 9950 nM | > 9950 nM |  | 109% |
| CCCCCCCCCCCC(=O)N[C@@H](CCC(=O)NCCOCCOCC(=O)NCCCC[C@H](NC(=O)[C@H](CCCN)NC(=O)[C@H](CC(=O)O)NC(=O)[C@H](CC(C)C)NC(=O)[C@](C)(CC(C)C)NC(=O)[C@@H](NC(=O)C(C)(C)NC(=O)[C@H](CCCCNC(=O)COCCOCCNC(=O)CC[C@H](NC(=O)CCCCCCCCCCC)C(=O)O)NC(=O)[C@H](CC(=O)O)NC(=O)[C@H](CO)NC(=O)[C@@H](NC(=O)[C@](C)(Cc1ccccc1F)NC(=O)[C@@H](NC(=O)CNC(=O)[C@H](CCC(=O)O)NC(=O)C(C)(C)NC(=O)[C@@H](N)Cc1ccc(O)cc1)[C@@H](C)O)[C@@H](C)O)[C@@H](C)CC)C(=O)N[C@@H](C)C(=O)N[C@@H](CCC(N)=O)C(=O)NC(C)(C)C(=O)N[C@@H](CCC(=O)O)C(=O)N[C@@H](Cc1ccccc1)C(=O)N[C@H](C(=O)N[C@H](CCC(=O)O)C(=O)N[C@@](C)(Cc1ccc(O)cc1)C(=O)N[C@@H](CC(C)C)C(=O)N[C@H](C(=O)N[C@@H](CCC(=O)O)C(=O)NCC(=O)NCC(=O)N1CCC[C@H]1C(=O)N[C@@H](CO)C(=O)N[C@@H](CO)C(=O)NCC(=O)N[C@@H](C)C(=O)N1CCC[C@H]1C(=O)N1CCC[C@H]1C(=O)N1CCC[C@H]1C(=O)N[C@@H](CO)C(N)=O)[C@@H](C)CC)[C@@H](C)CC)C(=O)O [Example 425] | 0.0965 nM |  | 89.9% | 97.6% | 0.00943 nM | > 9950 nM | > 9950 nM |  |  |
